Source: US6737383B1, “Herbicidal oxadiazolidines” (priority 1999, dated 2004)

Tests used:
bedstraw = assay: Test B pre/postemergence bedstraw; assay type: in vivo, Galium aparine; details: for Bedstraw plant response rating: Postemergence; for Plant response rating, Bedstraw: Preemergence
Summary of the method: (§1)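 Test chemicals in a non-phytotoxic solvent mixture with surfactant were sprayed preemergence onto planted seeds and postemergence onto plants 2 to 18 cm tall (1- to 4-leaf stage). After twelve to sixteen days in a greenhouse, injury was visually rated against untreated controls from 0 (no effect) to 10 (complete control).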

blackgrass = assay: Test B pre/postemergence blackgrass; assay type: in vivo, Alopecurus myosuroides
Summary of the method: as §1

surinam grass = assay: Test B pre/postemergence surinam grass; assay type: in vivo, Brachiaria decumbens
Summary of the method: as §1

cocklebur = assay: Test B pre/postemergence cocklebur; assay type: in vivo, Xanthium strumarium
Summary of the method: as §1

corn = assay: Test B pre/postemergence corn; assay type: in vivo, Zea mays
Summary of the method: as §1

crabgrass = assay: Test B pre/postemergence crabgrass; assay type: in vivo, Digitaria sanguinalis
Summary of the method: as §1

giant foxtail = assay: Test B pre/postemergence giant foxtail; assay type: in vivo, Setaria faberii
Summary of the method: as §1

rape = assay: Test B pre/postemergence rape; assay type: in vivo, Brassica napus
Summary of the method: as §1

soybean = assay: Test B pre/postemergence soybean; assay type: in vivo, Glycine max
Summary of the method: as §1

sugar beet = assay: Test B pre/postemergence sugar beet; assay type: in vivo, Beta vulgaris; details: for Plant response rating, Sugarbeets: Rate 250 g/ha
Summary of the method: as §1

velvetleaf = assay: Test B pre/postemergence velvetleaf; assay type: in vivo, Abutilon theophrasti; details: for Plant response rating, Velvetleaf: Rate 250 g/ha
Summary of the method: as §1

wheat = assay: Test B pre/postemergence wheat; assay type: in vivo, Triticum aestivum; details: for Plant response rating, Wheat: Rate 250 g/ha
Summary of the method: as §1

purple nutsedge = assay: Test B pre/postemergence purple nutsedge; assay type: in vivo, Cyperus rotundus
Summary of the method: as §1

rice = assay: Test B flood test rice; assay type: in vivo, Oryza sativa
Summary of the method: (§2)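 Each value is a visual injury score relative to controls, with 10 meaning complete control and 0 no effect. Evaluation took place twelve to sixteen days after the 2-leaf-stage plants were treated and kept in the greenhouse.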

smallflower flatsedge = assay: Test B flood test smallflower flatsedge; assay type: in vivo, Cyperus difformis
Summary of the method: as §2

duck salad = assay: Test B flood test duck salad; assay type: in vivo, Heteranthera limosa
Summary of the method: as §2

bamyardgrass = assay: Test B flood test barnyardgrass; assay type: in vivo, Echinochloa crus-galli
Summary of the method: as §2

[1] = Postemergence, Rate 62 g/ha, scale 0 to 10, 0 is no effect, 10 is complete control
[2] = Postemergence, Rate 125 g/ha, scale of 0 to 10 where 0 is no effect and 10 is complete control
[3] = Postemergence, Rate 250 g/ha, scale 0 to 10, 0 no effect, 10 complete control
[4] = Preemergence, Rate 62 g/ha, scale 0 to 10 (0 no effect, 10 complete control)
[5] = Preemergence, Rate 125 g/ha, scale 0 to 10 (0 no effect, 10 complete control)
[6] = Preemergence, Rate 250 g/ha, scale of 0 to 10 where 0 is no effect and 10 is complete control
[7] = Preemergence, Rate 500 g/ha, scale 0 (no effect) to 10 (complete control)
[8] = Rate 500 g/ha, Postemergence, scale 0 to 10, 0 no effect, 10 complete control
[9] = Preemergence, Rate 125 g/ha, 0 is no effect, 10 is complete control
[10] = Preemergence, scale of 0 to 10 where 0 is no effect and 10 is complete control
[11] = Postemergence, scale 0 to 10, 0 is no effect, 10 is complete control
[12] = Postemergence (flood test species), Rate 125 g/ha, scale of 0 to 10 where 0 is no effect and 10 is complete control
[13] = Rate 250 g/ha, Postemergence (flood test), scale 0 to 10, 0 is no effect, 10 is complete control
[14] = Rate 500 g/ha, listed under Postemergence (flood test species), scale 0 to 10, 0 no effect, 10 complete control
[15] = flood test, listed under Postemergence, Rate 250 g/ha, scale 0 to 10, 0 no effect, 10 complete control

CC(C)N(C(=O)n1oc(=O)n(-c2cnn(C)c2Cl)c1=O)c1ccc(F)cc1 [Compound 97]
2: Plant response rating, B. signalgrass (surinam grass; [5]) | Crabgrass plant response rating (crabgrass; [2]) | Soybean plant response rating (soybean; [7]) | Soybean plant response rating (soybean; [8]) | Plant response rating, Velvetleaf (velvetleaf; [11]) | Wheat plant response rating (wheat; [7]) | S. Flatsedge plant response rating (smallflower flatsedge; [14]) | Ducksalad plant response rating (duck salad; [14]) | Ducksalad plant response rating (duck salad; [15])
5: Blackgrass plant response rating (blackgrass; [8]) | Plant response rating, Rape (rape; [6]) | Plant response rating, Sugarbeets (sugar beet; [10])
1: Bedstraw plant response rating (bedstraw; Rate 250 g/ha, scale 0 to 10, 0 no effect, 10 complete control) | Plant response rating, Blackgrass (blackgrass; [5]) | Plant response rating, Blackgrass (blackgrass; [6]) | Cocklebur plant response rating (cocklebur; [3]) | Cocklebur plant response rating (cocklebur; [8]) | Plant response rating, Crabgrass (crabgrass; [6]) | Plant response rating, Soybean (soybean; Rate 250 g/ha, Postemergence, scale 0 to 10, 0 is no effect, 10 is complete control)
8: Giant foxtail plant response rating (giant foxtail; [7])
6: Rape plant response rating (rape; [7])
9: Sugarbeets plant response rating (sugar beet; [7])
0: Bedstraw plant response rating (bedstraw; Rate 62 g/ha, scale 0 to 10, 0 is no effect, 10 is complete control) | Plant response rating, Bedstraw (bedstraw; Rate 125 g/ha, scale 0 to 10 (0 no effect, 10 complete control)) | Plant response rating, Bedstraw (bedstraw; Rate 250 g/ha, scale of 0 to 10 where 0 is no effect and 10 is complete control) | Bedstraw plant response rating (bedstraw; Rate 125 g/ha, scale 0 to 10, 0 no effect, 10 complete control) | Blackgrass plant response rating (blackgrass; [1]) | Blackgrass plant response rating (blackgrass; [2]) | Blackgrass plant response rating (blackgrass; [4]) | B. signalgrass plant response rating (surinam grass; [1]) | B. signalgrass plant response rating (surinam grass; [3]) | B. signalgrass plant response rating (surinam grass; [4]) | B. signalgrass plant response rating (surinam grass; Rate 125 g/ha, Postemergence, scale 0 to 10, 0 no effect, 10 complete control) | B. signalgrass plant response rating (surinam grass; Rate 500 g/ha, Postemergence, scale of 0 to 10 where 0 is no effect and 10 is complete control) | Cocklebur plant response rating (cocklebur; [1]) | Cocklebur plant response rating (cocklebur; [2]) | Cocklebur plant response rating (cocklebur; [4]) | Plant response rating, Cocklebur (cocklebur; [5]) | Plant response rating, Cocklebur (cocklebur; [6]) | Cocklebur plant response rating (cocklebur; [7]) | Corn plant response rating (corn; [1]) | Corn plant response rating (corn; [2]) | Corn plant response rating (corn; [3]) | Corn plant response rating (corn; [4]) | Plant response rating, Corn (corn; [5]) | Plant response rating, Corn (corn; [6]) | Corn plant response rating (corn; [7]) | Corn plant response rating (corn; [8]) | Crabgrass plant response rating (crabgrass; [1]) | Crabgrass plant response rating (crabgrass; [4]) | Plant response rating, Crabgrass (crabgrass; [5]) | Giant foxtail plant response rating (giant foxtail; [1]) | Giant foxtail plant response rating (giant foxtail; [2]) | Giant foxtail plant response rating (giant foxtail; [4]) | Rape plant response rating (rape; [1]) | Rape plant response rating (rape; [2]) | Rape plant response rating (rape; [3]) | Rape plant response rating (rape; [4]) | Plant response rating, Rape (rape; [5]) | Soybean plant response rating (soybean; [1]) | Soybean plant response rating (soybean; [2]) | Soybean plant response rating (soybean; [4]) | Plant response rating, Soybean (soybean; [5]) | Plant response rating, Soybean (soybean; [6]) | Sugarbeets plant response rating (sugar beet; [1]) | Sugarbeets plant response rating (sugar beet; [2]) | Sugarbeets plant response rating (sugar beet; [4]) | Plant response rating, Sugarbeets (sugar beet; [11]) | Sugarbeets plant response rating (sugar beet; [8]) | Velvetleaf plant response rating (velvetleaf; [1]) | Velvetleaf plant response rating (velvetleaf; [2]) | Velvetleaf plant response rating (velvetleaf; [4]) | Velvetleaf plant response rating (0 to 10 scale) (velvetleaf; [9]) | Plant response rating, Velvetleaf (velvetleaf; [10]) | Velvetleaf plant response rating (velvetleaf; [7]) | Wheat plant response rating (wheat; [1]) | Wheat plant response rating (wheat; [2]) | Wheat plant response rating (wheat; [4]) | Wheat plant response rating (0 to 10 scale) (wheat; [9]) | Plant response rating, Wheat (wheat; [10]) | Plant response rating, Wheat (wheat; [11]) | Wheat plant response rating (wheat; [8]) | Nutsedge plant response rating (purple nutsedge; [1]) | Nutsedge plant response rating (purple nutsedge; [2]) | Nutsedge plant response rating (purple nutsedge; [3]) | Nutsedge plant response rating (purple nutsedge; [4]) | Plant response rating, Nutsedge (purple nutsedge; [5]) | Plant response rating, Nutsedge (purple nutsedge; [6]) | Nutsedge plant response rating (purple nutsedge; [7]) | Nutsedge plant response rating (purple nutsedge; [8]) | Rice plant response rating (rice; [12]) | Rice plant response rating (rice; [1]) | Plant response rating, Rice (rice; [13]) | S. Flatsedge plant response rating (smallflower flatsedge; [12]) | S. Flatsedge plant response rating (smallflower flatsedge; [1]) | Plant response rating, S. Flatsedge (smallflower flatsedge; [13]) | Ducksalad plant response rating (duck salad; [12]) | Ducksalad plant response rating (duck salad; [1]) | Barnyardgrass plant response rating (bamyardgrass; [1]) | Barnyardgrass plant response rating (bamyardgrass; Rate 125 g/ha, Postemergence section (flood test species), scale 0 to 10, 0 no effect, 10 complete control) | Barnyardgrass plant response rating (bamyardgrass; [14]) | Barnyardgrass plant response rating (bamyardgrass; [15])
4: B. signalgrass plant response rating (surinam grass; [7]) | Crabgrass plant response rating (crabgrass; [3]) | Crabgrass plant response rating (crabgrass; [7]) | Plant response rating, Giant foxtail (giant foxtail; [6]) | Giant foxtail plant response rating (giant foxtail; [8])
3: Bedstraw plant response rating (bedstraw; Rate 500 g/ha, scale 0 to 10, 0 no effect, 10 complete control) | Blackgrass plant response rating (blackgrass; [3]) | Blackgrass plant response rating (blackgrass; [7]) | Plant response rating, B. signalgrass (surinam grass; [6]) | Giant foxtail plant response rating (giant foxtail; [3]) | Plant response rating, Giant foxtail (giant foxtail; [5]) | Rape plant response rating (rape; [8]) | Sugarbeets plant response rating (0 to 10 scale) (sugar beet; [9]) | Velvetleaf plant response rating (velvetleaf; [8]) | Rice plant response rating (rice; [14])
